Measurements as given in ChEMBL document CHEMBL5523670, “Structure activity relationship and target prediction for ABX464 analogues in Caenorhabditis elegans” (Bioorg Med Chem, 2024).
pIC50: −log10 of the molar value.

Columns and labels:
Caenorhabditis elegans [1] = assay: Anthelmintic activity against Caenorhabditis elegans N2 Bristol assessed as reduction in motility of young adults measured for 40 hrs; type: functional, organism-based; settings: for pIC50: Caenorhabditis elegans, N2 Bristol, 40 h
[2] = Mitotoxicity against human HepG2 cells assessed as reduction in cell viability measured for 48 hrs by crystal violet staining based analysis; type: toxicity
[3] = Cytotoxicity against human HepG2 cells measured for 48 hrs by crystal violet staining based analysis; type: toxicity, cell-based
Caenorhabditis elegans [4] = assay: Anthelmintic activity against Caenorhabditis elegans N2 Bristol assessed as maximum inhibition of motility measured for 40 hrs; type: functional

SMILES | pIC50 (Caenorhabditis elegans [1]) | other results
FC(F)(F)Oc1ccccc1Nc1ccc2cccc(Cl)c2n1 | < 4.40 | 
FC(F)(F)Oc1ccc(Nc2nc3ccccc3cc2Cl)cc1 | < 4.40 | 
Clc1cccc(Nc2ccc3cccc(Cl)c3n2)c1 | 4.96 | CC50 at 48 h [2]: ≥ 40 µM; CC50 at 48 h [3]: ≥ 40 µM
Clc1cccc2ccc(Nc3ccccc3-c3ccccc3)nc12 | < 4.40 | 
COc1ccc(Nc2ccc3cccc(Cl)c3n2)cc1 | < 4.40 | 
Clc1ccc(Nc2ccc3cccc(Cl)c3n2)cc1 | 4.85 | Imax (Caenorhabditis elegans [4]): 58%
FC(F)(F)Oc1ccc(Oc2ccc3cccc(Cl)c3n2)cc1 | < 4.40 | 
Fc1ccc(Nc2ccc3cccc(Cl)c3n2)cc1 | 4.80 | Imax (Caenorhabditis elegans [4]): 57%
FC(F)(F)Oc1ccc(Nc2ccc3cccc(-c4ccccc4)c3n2)cc1 | < 4.40 | 
Cc1cccc2ccc(Nc3ccc(OC(F)(F)F)cc3)nc12 | < 4.40 | 
N#Cc1ccccc1Nc1ccc2cccc(Cl)c2n1 | < 4.40 | 
FC(F)(F)Oc1ccc(Nc2ccc3cccc(Cl)c3n2)cc1 [OBEFAZIMOD] | 5.14 | Imax (Caenorhabditis elegans [4]): 94%
FC(F)(F)c1ccc(Nc2ccc3cccc(Cl)c3n2)cc1 |  | CC50 at 48 h [2]: ≥ 40 µM; CC50 at 48 h [3]: ≥ 40 µM
Cc1ccc(Nc2ccc3cccc(Cl)c3n2)cc1 | 4.55 | Imax (Caenorhabditis elegans [4]): 59%
FC(F)(F)c1ccc(Nc2ccc3cccc(Cl)c3n2)cc1C(F)(F)F | < 4.40 | 
CO/N=C1\C[C@]2(C[C@@H]3C[C@@H](C/C=C(\C)C[C@@H](C)/C=C/C=C4\CO[C@@H]5[C@H](O)C(C)=C[C@@H](C(=O)O3)[C@]45O)O2)O[C@H](/C(C)=C/C(C)C)[C@H]1C [MOXIDECTIN] | 7.00 | 
Clc1ccccc1Nc1ccc2cccc(Cl)c2n1 | < 4.40 | 
Clc1ccc(Nc2ccc3cccc(Cl)c3n2)cc1Cl | 5.16 | CC50 at 48 h [2]: ≥ 40 µM; CC50 at 48 h [3]: ≥ 40 µM; Imax (Caenorhabditis elegans [4]): 100%
COc1cccc2ccc(Nc3ccc(OC(F)(F)F)cc3)nc12 | < 4.40 | 
COc1ccccc1Nc1ccc2cccc(Cl)c2n1 | < 4.40 | 
Clc1cccc2ccc(Nc3cccc(-c4ccccc4)c3)nc12 | < 4.40 | 
N#Cc1ccc(Nc2ccc3cccc(Cl)c3n2)cc1 | < 4.40 | 
N#Cc1cccc2ccc(Nc3ccc(OC(F)(F)F)cc3)nc12 | < 4.40 | 
FC(F)(F)Oc1ccc(Nc2ccc3ccccc3n2)cc1 | < 4.40 | 

SMILES | pIC50 (Caenorhabditis elegans [1]) | other results
FC(F)(F)c1cccc(Nc2ccc3cccc(Cl)c3n2)c1 | 5.49 | Imax (Caenorhabditis elegans [4]): 55%
Cc1cccc(Nc2ccc3cccc(Cl)c3n2)c1 | 4.66 | 
N#Cc1cccc(Nc2ccc3cccc(Cl)c3n2)c1 | < 4.40 | 
FC(F)(F)Oc1ccc(Nc2ccc3cccc(Br)c3n2)cc1 | 5.23 | Imax (Caenorhabditis elegans [4]): 67%
FC(F)(F)c1ccc(Nc2ccc3cccc(Cl)c3n2)cn1 | < 4.40 | 
FC(F)(F)Oc1ccc(Nc2ccccn2)cc1 | < 4.40 | 
FC(F)(F)Oc1ccc(Nc2ccc3cc(Cl)ccc3n2)cc1 | < 4.40 | 
Clc1cccc2ccc(Nc3ccc(-c4ccccc4)cc3)nc12 | < 4.40 | 
FC(F)(F)c1cc(Nc2ccc3cccc(Cl)c3n2)ccc1Cl | 5.15 | Imax (Caenorhabditis elegans [4]): 82%
FC(F)(F)Oc1ccc(Nc2ccc3cccc(Cl)c3n2)cc1Cl | < 4.40 | 
Fc1cccc(Nc2ccc3cccc(Cl)c3n2)c1 | 4.54 | 
FC(F)(F)Oc1ccc(Nc2ccc3c(Cl)cccc3n2)cc1 | 5.15 | CC50 at 48 h [2]: ≥ 40 µM; CC50 at 48 h [3]: ≥ 40 µM
Fc1ccccc1Nc1ccc2cccc(Cl)c2n1 | < 4.40 | 
FC(F)(F)Oc1cccc(Nc2ccc3cccc(Cl)c3n2)c1 | < 4.40 | 
FC(F)(F)c1ccccc1Nc1ccc2cccc(Cl)c2n1 | < 4.40 | 
COc1cccc(Nc2ccc3cccc(Cl)c3n2)c1 | 4.68 | 
Oc1ccc(Nc2ccc3cccc(Cl)c3n2)cc1 | < 4.40 | 
FC(F)(F)Oc1ccc(Nc2cc(Cl)c3ccccc3n2)cc1 | 4.96 | 
C[C@](C#N)(COc1cc(C#N)ccc1C(F)(F)F)NC(=O)c1ccc(SC(F)(F)F)cc1 [MONEPANTEL] | 7.52 | 
CN(c1ccc(OC(F)(F)F)cc1)c1ccc2cccc(Cl)c2n1 | 4.11 | CC50 at 48 h [2]: ≥ 40 µM; CC50 at 48 h [3]: ≥ 40 µM; Imax (Caenorhabditis elegans [4]): 81%
Clc1cccc2ccc(Nc3ccccc3)nc12 | 4.96 | Imax (Caenorhabditis elegans [1]; time 40 hrs): 52%
Fc1cccc2ccc(Nc3ccc(OC(F)(F)F)cc3)nc12 | 4.74 | Imax (Caenorhabditis elegans [4]): 69%
FC(F)(F)c1ccc(Nc2ccc3cccc(Cl)c3n2)nc1 | < 4.40 | 
